Biological target: NR1/NR2B (Homo sapiens (Human), UniProt Q05586+Q13224)
Assay: Cell assay: FDSS Ca2+ influx inhibition in HEK293 cells expressing NR1/NR2B;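 note: Fluo-8 Ca2+ signal read on Hamamatsu FDSS 6000 after glutamate, glycine and Ca2+ challenge following 10 min compound preincubation, end/baseline fluorescence ratio compared with MK801 control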
Conditions: Ca2+ influx
[1] = Binned Activity, HEK293 cells expressing NR1/NR2B, binned NR2B NAM IC50
[2] = NR2B NAM IC50, HEK293 cells expressing NR1/NR2B

Sequence of NR1/NR2B (Q13224 27-1484, other chains not shown): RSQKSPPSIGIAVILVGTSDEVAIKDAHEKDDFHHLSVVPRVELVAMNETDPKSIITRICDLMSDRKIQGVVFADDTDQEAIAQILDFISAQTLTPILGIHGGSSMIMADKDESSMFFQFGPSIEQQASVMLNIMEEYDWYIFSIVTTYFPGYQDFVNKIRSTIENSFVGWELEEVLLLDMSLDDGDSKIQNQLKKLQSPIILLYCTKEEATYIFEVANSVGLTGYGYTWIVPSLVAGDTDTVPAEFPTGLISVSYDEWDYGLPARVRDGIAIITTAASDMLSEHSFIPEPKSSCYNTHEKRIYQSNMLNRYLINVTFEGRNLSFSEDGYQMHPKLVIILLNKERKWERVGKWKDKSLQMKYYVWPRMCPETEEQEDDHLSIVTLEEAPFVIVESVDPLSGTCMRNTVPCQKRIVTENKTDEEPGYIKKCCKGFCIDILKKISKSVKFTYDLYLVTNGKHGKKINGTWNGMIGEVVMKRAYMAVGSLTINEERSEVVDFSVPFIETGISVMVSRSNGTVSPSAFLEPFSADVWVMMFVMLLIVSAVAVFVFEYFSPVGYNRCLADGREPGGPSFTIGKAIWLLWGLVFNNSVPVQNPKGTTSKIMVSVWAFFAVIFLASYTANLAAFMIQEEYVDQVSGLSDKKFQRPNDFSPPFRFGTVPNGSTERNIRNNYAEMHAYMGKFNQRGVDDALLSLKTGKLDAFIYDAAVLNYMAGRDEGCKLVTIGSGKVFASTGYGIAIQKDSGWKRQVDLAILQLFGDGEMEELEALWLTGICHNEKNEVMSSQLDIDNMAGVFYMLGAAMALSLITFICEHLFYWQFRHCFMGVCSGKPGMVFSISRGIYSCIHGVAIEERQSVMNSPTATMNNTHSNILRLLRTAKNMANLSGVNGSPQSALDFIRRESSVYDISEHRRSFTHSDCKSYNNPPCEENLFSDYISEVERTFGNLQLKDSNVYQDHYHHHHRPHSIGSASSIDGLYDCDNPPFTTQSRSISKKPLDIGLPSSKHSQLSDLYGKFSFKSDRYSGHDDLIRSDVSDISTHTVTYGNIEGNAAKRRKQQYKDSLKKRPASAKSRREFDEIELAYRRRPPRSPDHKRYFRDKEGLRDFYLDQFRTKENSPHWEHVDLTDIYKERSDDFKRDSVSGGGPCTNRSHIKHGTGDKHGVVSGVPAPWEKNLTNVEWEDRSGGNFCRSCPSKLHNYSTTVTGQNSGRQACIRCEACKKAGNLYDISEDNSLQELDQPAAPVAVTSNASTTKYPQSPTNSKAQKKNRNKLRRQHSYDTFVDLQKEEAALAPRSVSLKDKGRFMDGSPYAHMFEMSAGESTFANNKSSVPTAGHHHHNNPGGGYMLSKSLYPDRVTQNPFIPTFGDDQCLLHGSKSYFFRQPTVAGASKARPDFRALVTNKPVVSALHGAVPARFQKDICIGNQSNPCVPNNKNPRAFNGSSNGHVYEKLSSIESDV
Procedure: Cell Culture and plating: HEK293 cells expressing NR1/NR2B (Chantest, Cleveland, Ohio) were grown to 70-80% confluency as an adherent monolayer in standard tissue culture flasks at 37° C., 5% CO2 per supplier's instructions. NR2B expression was induced by incubation with 0.3-0.4 μg/ml tetracycline in the presence of 4 mM ARL-15896 for 18-24 hours under the same growth conditions, then transferred to 30° C. for another 3-5 hours.
After induction, cell culture medium was removed and cells were rinsed once with Ca^2+ and Mg^2+-free Dulbecco's phosphate buffered saline. Cells were then removed from the flask using TrypLE™ Express (Life Technologies) according to the manufacturer's instructions and collected to 50 ml centrifuge tubes. Following two washes in Ca^2+/Mg^2+-free HBSS with 20 mM HEPES (HHnoCa), cells were counted and viability assessed using trypan blue. To load cells with Ca^2+-sensitive dye, they were resuspended in fluo-8 plus Component B (AAT Bioquest Products) diluted in HHnoCa and incubated 15 minutes at 37° C., followed by 30 minutes at room temp (in dark). Cells were then washed and resuspended in HHnoCa to remove extracellular dye and plated in 384-well plates (Falcon, uncoated) at 20,000-30,000 cells/well in a final volume of 25 μl/well.
FDSS Assay: To each well of the plate, 10 μL test compound, control (MK801) or HHnoCa buffer was added to a final concentration of 10 μM with a final concentration of DMSO of 0.1%. Following 10 minutes pre-incubation in the dark, plates are loaded onto the Hamamatsu FDSS 6000. After collecting baseline fluorescence images, 3 μM glutamate, 3 glycine, and 1 mM Ca^2+ in HHnoCa buffer is added to each well, and Ca^2+ is recorded for 3 minutes. Data were processed by computing ratio of fluorescence at the end of data collection to baseline fluorescence to assess degree of Ca′ influx inhibition relative to that observed in MK801.

Compound | IC50 [1] | IC50 [2]
COc1cccc([C@]2(O)C[C@H]3CN(C(=O)Nc4ccc(Cl)c(C(F)(F)F)c4)C[C@H]3C2)c1 [Example 34, N-[4-chloro-3-(trifluoromethyl)phenyl]-5-hydroxy-5-(3-methoxyphenyl)-octahydrocyclopenta[c] pyrrole-2-carboxamide] | > 10 µM | –
Oc1ccc(C(O)CN2C[C@@H]3C[C@@](O)(Cc4ccc(F)cc4F)C[C@@H]3C2)nc1 (mixture of isomers) [Example 233, rac-(3aR,5r,6aS)-5-(2,4-difluorobenzyl)-2-(2-hydroxy-2-(5-hydroxypyridin-2-yl)ethyl)octahydrocyclo-penta[c]pyrrol-5-ol] | < 0.1 µM | 0.0299 µM
COc1ccccc1CNC(=O)N1C[C@@H]2C[C@@](O)(c3ccccc3)C[C@@H]2C1 [Example 21, 5-hydroxy-N-[(2-methoxyphenyl)methyl]-5-phenyl-octahydrocyclopenta[c] pyrrole-2-carboxamide] | > 10 µM | –
CC(C(=O)c1ccc(O)cc1)N1C[C@H]2CC(Cc3ccccc3)C[C@H]2C1 (mixture of isomers) [Example 296, rac-2-((3aR,6aS)-5-benzylhexahydrocyclo-penta[c]pyrrol-2(1H)-yl)-1-(4-hydroxyphenyl)propan-1-one] | 0.1 to 1 µM | 0.125 µM
Oc1ccc(C(O)CN2C[C@H]3CN(Cc4ccccc4)C[C@H]3C2)cc1 (mixture of isomers) [Example 327, rac-4-(2-(5-benzylhexahydropyrrolo [3,4-c]pyrrol-2(1H)-yl)-1-hydroxyethyl)phenol] | 0.1 to 1 µM | 0.139 µM
CC(C(=O)c1ccc(O)cc1)N1C[C@@H]2C[C@@](O)(c3ccccc3)C[C@@H]2C1 (mixture of isomers) [Example 90, rac-2-(5-hydroxy-5-phenylhexahydrocyclo-penta[c]pyrrol-2(1H)-yl)-1-(4-hydroxyphenyl)propan-1-one] | > 10 µM | ≥ 10 µM
Cc1ccc(NC(=O)N2C[C@@H]3C[C@@](O)(c4ccccc4C)C[C@@H]3C2)cc1 [Example 9] | > 10 µM | –
COc1cccc(C(O)CN2C[C@@H]3C[C@@](O)(c4cccc(OC)c4)C[C@@H]3C2)c1 (mixture of isomers) [Example 77, rac-2-[2-hydroxy-2-(3-methoxyphenyl)ethyl]-5-(3-methoxyphenyl)-octahydrocyclopenta[c] pyrrol-5-ol] | > 10 µM | ≥ 10 µM
CC(C(O)c1ccc(O)cc1)N1C[C@@H]2C[C@@](O)(CCc3ccccc3)C[C@@H]2C1 (mixture of isomers) [Example 320, rac-2-(1-hydroxy-1-(4-hydroxyphenyl)propan-2-yl)-5-phenethyl-octahydrocyclo-panta[c]pyrrol-5-ol] | – | 2.05 µM
CS(=O)(=O)Nc1ccc(C(O)CN2C[C@@H]3C[C@@](O)(Cc4ccccc4)C[C@@H]3C2)cc1 (mixture of isomers) [Example 150, rac-N-(4-(2-((3aR,5r,6aS)-5-benzyl-5-hydroxyhexahydrocyclo-penta[c]pyrrol-2(1H)-yl)-1-hydroxy-ethyl)phenyl)meth-anesulfonamide] | – | 0.047 µM
Oc1ccc(C(O)CN2C[C@@H]3C[C@@](O)(Cc4ccc(F)cc4F)C[C@@H]3C2)cc1 (mixture of isomers) [Example 245, rac-5-(2,4-difluorobenzyl)-2-(2-hydroxy-2-(4-hydroxyphenyl)ethyl) octahydrocyclopenta[c] pyrrol-5-ol] | < 0.1 µM | 0.0238 µM
Oc1ccc(C(O)CN2C[C@H]3C[C@@H](Cc4ccccc4)C[C@H]3C2)cc1 (mixture of isomers) [Example 304, rac-4-{2-[(3aR,5S,6aS)-5-benzyl-octahydrocyclopenta[c]pyrrol-2-yl]-1-hydroxyethyl}phenol] | < 0.1 µM | 0.0168 µM
Oc1ccc(C(O)CN2C[C@@H]3C[C@@](O)(Cc4ccccc4F)C[C@@H]3C2)nc1 (mixture of isomers) [Example 228, rac-5-(2-fluorobenzyl)-2-(2-hydroxy-2-(5-hydroxypyridin-2-yl)ethyl)octahydrocyclo-penta[c]pyrrol-5-olyl)ethanone] | < 0.1 µM | 0.0409 µM
OC(CN1C[C@H]2C[C@@H](c3ccccc3)C[C@H]2C1)c1cccc(C(F)(F)F)c1 (mixture of isomers) [Example 116, rac-2-(5-phenylhexahydrocyclo-penta[c]pyrrol-2(1H)-yl)-1-(3-(trifluoromethyl)phenyl) ethanol] | > 10 µM | ≥ 10 µM
CC(=O)Nc1ccc(C(O)CN2C[C@@H]3C[C@@](O)(Cc4ccccc4)C[C@@H]3C2)cn1 (mixture of isomers) [Example 283, rac-N-(5-(2-((3aR,5r,6aS)-5-benzyl-5-hydroxyhexahydrocyclo-penta[c]pyrrol-2(1H)-yl)-1-hydroxyethyl)pyridin-2-yl)acetamide] | > 10 µM | ≥ 10 µM
OC(CN1C[C@H]2CC(Cc3ccccc3)C[C@H]2C1)c1cccc(C(F)(F)F)c1 (mixture of isomers) [Example 309, rac-2-((3aR,6aS)-5-benzylhexahydrocyclo-penta[c]pyrrol-2(1H)-yl)-1-(3-(trifluoromethyl)phenyl) ethanol] | > 10 µM | ≥ 10 µM
COc1ccc(C(O)CN2C[C@@H]3C[C@@](O)(c4ccccc4)C[C@@H]3C2)cc1 (mixture of isomers) [Example 66, rac-2-[2-hydroxy-2-(4-methoxyphenyl)ethyl]-5-phenyl-octahydrocyclopenta[c] pyrrol-5-ol] | > 10 µM | ≥ 10 µM

Compound | IC50 [1] | IC50 [2]
O=c1[nH]c2ccc(C(O)CN3C[C@@H]4C[C@@](O)(Cc5ccccc5)C[C@@H]4C3)cc2o1 (mixture of isomers) [Example 154, rac-6-(2-((3aR,5r,6aS)-5-benzyl-5-hydroxyhexahydrocyclo-penta[c]pyrrol-2(1H)-yl)-1-hydroxyethyl)benzo[d] oxazol-2(3H)-one] | – | 0.0524 µM
[2H]C(O)(CN1C[C@@H]2C[C@@](O)(Cc3ccccc3)C[C@@H]2C1)c1ccc(O)cc1 (mixture of isomers) [Example 281, deuterated rac-(3aR,6aS)-5-benzyl-2-((S)-2-hydroxy-2-(4-hydroxyphenyl)ethyl) octahydrocyclopenta [c]pyrrol-5-ol] | < 0.1 µM | 0.0174 µM
OC(CN1C[C@@H]2C[C@@](O)(c3ccc(F)cc3)C[C@@H]2C1)c1ccc(Cl)cc1Cl (mixture of isomers) [Example 76, rac-2-[2-(2,4-dichlorophenyl)-2-hydroxyethyl]-5-(4-fluorophenyl)-octahydrocyclopenta[c] pyrrol-5-ol] | > 10 µM | ≥ 10 µM
COc1cccc([C@]2(O)C[C@H]3CN(C(=O)Nc4cccc(Cl)c4)C[C@H]3C2)c1 [Example 15] | > 10 µM | –
O=C(Nc1ccc(F)cc1)N1C[C@@H]2C[C@@](O)(c3ccc(F)cc3)C[C@@H]2C1 [Example 35, N,5-bis(4-fluorophenyl)-5-hydroxy-octahydrocyclopenta[c] pyrrole-2-carboxamide] | > 10 µM | –
CC(O)(CN1CC2CC(O)(Cc3ccccc3)CC2C1)c1ccc(O)cc1 (racemic) [Example 280, rac-(3aR,5R,6aS)-5-benzyl-2-[2-hydroxy-2-(4-hydroxyphenyl)propyl]-octahydrocyclopenta[c] pyrrol-5-ol] | < 0.1 µM | 0.043 µM
OC(CN1C[C@@H]2C[C@@](O)(Cc3ccccc3)C[C@@H]2C1)c1ccc(Cl)cc1Cl (mixture of isomers) [Example 287, rac-(3aR,5r,6aS)-5-benzyl-2-(2-(2,4-dichlorophenyl)-2-hydroxyethyl)octahydro-cyclopenta[c]pyrrol-5-ol] | > 10 µM | ≥ 10 µM
CO[C@@]1(Cc2ccccc2)C[C@H]2CN(CC(O)c3ccc(O)cn3)C[C@H]2C1 (mixture of isomers) [Example 177, rac-6-(2-((3aR,5r,6aS)-5-benzyl-5-methoxyhexahydrocyclo-penta[c]pyrrol-2(1H)-yl)-1-hydroxyethyl)pyridin-3-ol] | – | 0.0316 µM
COc1cccc(C[C@]2(O)C[C@H]3CN(CC(O)c4ccc(O)c(F)n4)C[C@H]3C2)c1 (mixture of isomers) [Example 201, rac-(3aR,5r,6aS)-2-(2-(6-fluoro-5-hydroxypyridin-2-yl)-2-hydroxyethyl)-5-(3-methoxy-benzyl)octahydro-cyclopenta[c]pyrrol-5-ol] | – | 0.382 µM
Cc1ccc(C[C@]2(O)C[C@H]3CN(CC(=O)c4ccc(O)cc4)C[C@H]3C2)cc1 [Example 179] | < 0.1 µM | –
N#Cc1cccc(NC(=O)N2C[C@@H]3C[C@@](O)(c4ccc(F)cc4)C[C@@H]3C2)c1 [Example 40] | > 10 µM | –
Oc1ccc(C(O)CN2C[C@@H]3C[C@@](O)(CC4CCCCC4)C[C@@H]3C2)nc1 (mixture of isomers) [Example 214, rac-6-{2-[(3aR,5R,6aS)-5-(cyclohexylmethyl)-5-hydroxy-octahydrocyclopenta[c]pyrrol-2-yl]-1-hydroxyethyl}pyridin-3-ol] | – | 2.63 µM
Oc1ccc(C(O)CN2C[C@@H]3C[C@@](O)(Cc4ccc(F)cc4)C[C@@H]3C2)cc1F (mixture of isomers) [Example 171, rac-(3aR,5r,6aS)-2-(2-(3-fluoro-4-hydroxyphenyl)-2-hydroxyethyl)-5-(4-fluorobenzyl)octahydro-cyclopenta[c]pyrrol-5-ol] | – | 0.0221 µM
COc1ccc(C[C@]2(O)C[C@H]3CN(CC(O)c4ccc(O)cc4)C[C@H]3C2)cc1 (mixture of isomers) [Example 189, rac-(3aR,5r,6aS)-2-(2-hydroxy-2-(4-hydroxyphenyl)ethyl)-5-(4-methoxy-benzyl)octahydro-cyclopenta[c]pyrrol-5-ol] | – | 0.0474 µM
Oc1ccc(C(O)CN2C[C@@H]3C[C@@](O)(Cc4ccc(C(F)(F)F)cc4)C[C@@H]3C2)nc1 (mixture of isomers) [Example 217, rac-6-{2-[(3aR,5R,6aS)-5-hydroxy-5-{[4-(trifluoromethyl)phenyl]methyl}-octahydrocyclopenta[c]pyrrol-2-yl]-1-hydroxyethyl}pyridin-3-ol] | – | 0.036 µM
Oc1ccc(C(O)CN2C[C@H]3C[C@H](Cc4ccccc4)C[C@H]3C2)cc1F (mixture of isomers) [Example 302, rac-4-{2-[(3aR,5R,6aS)-5-benzyl-octahydrocyclopenta[c]pyrrol-2-yl]-1-hydroxyethyl}-2-fluorophenol] | – | 0.0201 µM

Source: patent publication US10052306B2 (LUC THERAPEUTICS, INC., priority 2013, dated 2018)
